{
  "source": "BindingDB's records for doi:10.1021/jm0704200",
  "key": {"[1]": {"test": "Agonist activity at human dopamine D2 receptor expressed in HEK293 cells by mitogenesis assay"}, "[2]": {"test": "Antagonist activity at human dopamine D2 receptor expressed in HEK293 cells by mitogenesis assay"}, "[3]": {"test": "Antagonist activity at human dopamine D3 receptor expressed in HEK293 cells by mitogenesis assay"}},
  "data": [
    {"molecule": "O=C(NC[C@H]1C[C@@H]1CN1CCN(c2cccc(Cl)c2Cl)CC1)c1ccc(-c2ccccn2)cc1", "note": "[N-(2-(4-(2,3-dichlorophenyl)piperazin-1-ylmethyl)-trans-cyclopropylmethyl)-4-pyridin-2-ylbenzamide]", "values": [
      {"measurement": "EC50", "setting": "[1]", "result": 150, "unit": "nM"},
      {"measurement": "IC50", "setting": "[2]", "result": 672, "unit": "nM"},
      {"measurement": "IC50", "setting": "[3]", "result": 14.3, "unit": "nM"}
    ]},
    {"molecule": "COc1ccccc1N1CCN(CCCCNC(=O)c2ccc(-c3ccccn3)cc2)CC1", "note": "[N-(4-(4-(2-methoxyphenyl)piperazin-1-yl)butyl)-4-pyridin-2-ylbenzamide]", "values": [
      {"measurement": "IC50", "setting": "[3]", "result": 2.9, "unit": "nM"}
    ]},
    {"molecule": "O=C(NCCCCN1CCN(c2cccc(Cl)c2Cl)CC1)c1ccc(-c2ccccn2)cc1", "note": "[N-{4-[4-(2,3-Dichloro-phenyl)-piperazin-1-yl]-butyl}-4-pyridin-2-yl-benzamide]", "values": [
      {"measurement": "EC50", "setting": "[1]", "result": 92, "unit": "nM"}
    ]},
    {"molecule": "COc1ccccc1N1CCN(CCCCNC(=O)c2ccc3c(c2)Cc2ccccc2-3)CC1", "note": "[N-(4-(4-(2-methoxyphenyl)piperazin-1-yl)butyl)-9H-fluorene-2-carboxamide]", "values": [
      {"measurement": "IC50", "setting": "[3]", "result": 2.2, "unit": "nM"}
    ]}
  ]
}
